Data reported in US8962671B2, “Amino-substituted 3-heteroaroylamino-propionic acid derivatives and their use as pharmaceuticals” (Sanofi, priority 2011, dated 2015).

Target: T1, Recombinant human cathepsin A (Homo sapiens, UniProt P10619)
T1 construct: Recombinant human cathepsin A (residues 29-480, with a C-terminal 10-His tag); 10-His (C); purchased R&D Systems 1049-SE
T1 sequence (P10619 29-326 limits assumed): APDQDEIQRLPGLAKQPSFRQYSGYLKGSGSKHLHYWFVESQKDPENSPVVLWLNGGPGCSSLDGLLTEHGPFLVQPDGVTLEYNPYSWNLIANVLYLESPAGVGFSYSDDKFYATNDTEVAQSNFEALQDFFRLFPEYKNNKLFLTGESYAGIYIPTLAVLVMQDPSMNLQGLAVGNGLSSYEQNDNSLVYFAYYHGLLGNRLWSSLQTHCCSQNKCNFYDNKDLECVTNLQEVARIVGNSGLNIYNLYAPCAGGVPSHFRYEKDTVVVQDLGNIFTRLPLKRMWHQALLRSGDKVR
T1 sequence (P10619 327-480 limits assumed): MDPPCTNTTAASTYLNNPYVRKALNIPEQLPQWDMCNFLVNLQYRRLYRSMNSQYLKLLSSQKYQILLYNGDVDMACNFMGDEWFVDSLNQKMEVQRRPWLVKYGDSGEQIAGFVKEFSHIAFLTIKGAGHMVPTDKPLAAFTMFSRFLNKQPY
Assay: Cathepsin A inhibitory activity
Assay type: biochemical
Settings: activated recombinant human cathepsin A 833 ng/ml, Bodipy FL-labeled bradykinin 2 μM, pH 5.5, 15 min room temperature
Description: a) Cathepsin a Inhibitory Activity
Recombinant human cathepsin A (residues 29-480, with a C-terminal 10-His tag; R&D Systems, #1049-SE) was proteolytically activated with recombinant human cathepsin L (R&D Systems, #952-CY). Briefly, cathepsin A was incubated at 10 μg/ml with cathepsin L at 1 μg/ml in activation buffer (25 mM 2-(morpholin-4-yl)-ethanesulfonic acid (MES), pH 6.0, containing 5 mM dithiothreitol (DTT)) for 15 min at 37° C. Cathepsin L activity was then stopped by the addition of the cysteine protease inhibitor E-64 (N-(trans-epoxysuccinyl)-L-leucine-4-guanidinobutylamide; Sigma-Aldrich, #E3132; dissolved in activation buffer/DMSO) to a final concentration of 10 μM.
The activated cathepsin A was diluted in assay buffer (25 mM MES, pH 5.5, containing 5 mM DTT) and mixed with the test compound (dissolved in assay buffer containing (v/v) 3% DMSO) or, in the control experiments, with the vehicle in a multiple assay plate. After incubation for 15 min at room temperature, as substrate then bradykinin carrying an N-Terminal®Bodipy FL (4,4-difluoro-5,7-dimethyl-4-bora-3a,4a-diaza-s-indacene-3-propionyl) label (JPT Peptide Technologies GmbH; dissolved in assay buffer) was added to the mixture. The final concentration of cathepsin A was 833 ng/ml and the final concentration of labeled bradykinin 2 μM. After incubation for 15 min at room temperature the reaction was stopped by the addition of stop buffer (130 mM 2-(4-(2-hydroxy-ethyl)-piperazin-1-yl)-ethanesulfonic acid, pH 7.4, containing (v/v) 0.013%®Triton X-100, 0.13% Coating Reagent 3 (Caliper Life Sciences), 6.5% DMSO and 20 μM ebelactone B (Sigma, #E0886)).
Uncleaved substrate and product were then separated by a microfluidic capillary electrophoresis on a LabChip® 3000 Drug Discovery System (12-Sipper-Chip; Caliper Life Sciences) and quantified by determination of the respective peak areas. Substrate turnover was calculated by dividing product peak area by the sum of substrate and product peak areas, and the enzyme activity and the inhibitory effect of the test compound thus quantified. From the percentage of inhibition of cathepsin A activity observed with the test compound at several concentrations, the inhibitory concentration IC50, i.e. the concentration which effects 50% inhibition of enzyme activity was, calculated.

Row | Structure (SMILES) | IC50 [nM]
1 | O=C(O)CC(NC(=O)c1cc2[nH]c3ccccc3n2n1)c1cc(F)ccc1Cl (stereo not drawn) [Example 32, 3-[(4H-Benzo[4,5]imidazo[1,2-b]pyrazole-2-carbonyl)-amino]-3-(2-chloro-5-fluoro-phenyl)-propionic acid] | 664
2 | O=C(O)CC(NC(=O)c1cc2[nH]c3ccccc3n2n1)c1cc(F)ccc1F (stereo not drawn) [Example 33, 3-[(4H-Benzo[4,5]imidazo[1,2-b]pyrazole-2-carbonyl)-amino]-3-(2,5-difluoro-phenyl)-propionic acid] | 2670
3 | O=C(O)CC(NC(=O)c1cc2[nH]c3ccccc3n2n1)c1ccc(F)cc1 (stereo not drawn) [Example 34, 3-[(4H-Benzo[4,5]imidazo[1,2-b]pyrazole-2-carbonyl)-amino]-3-(4-fluoro-phenyl)-propionic acid] | 2520
4 | Cc1ccccc1C(CC(=O)O)NC(=O)c1cc2[nH]c3ccccc3n2n1 (stereo not drawn) [Example 35, 3-[(4H-Benzo[4,5]imidazo[1,2-b]pyrazole-2-carbonyl)-amino]-3-o-tolyl-propionic acid] | 900
5 | N#Cc1cccc([C@H](CC(=O)O)NC(=O)c2cc3[nH]c4ccccc4n3n2)c1 [Example 37, (S)-3-[(4H-Benzo[4,5]imidazo[1,2-b]pyrazole-2-carbonyl)-amino]-3-(3-cyano-phenyl)-propionic acid] | 3570
6 | Cc1ccccc1[C@H](CC(=O)O)NC(=O)c1cc2[nH]c3ccccc3n2n1 [Example 38, (S)-3-[(4H-Benzo[4,5]imidazo[1,2-b]pyrazole-2-carbonyl)-amino]-3-o-tolyl-propionic acid] | 219
7 | Cc1cccc([C@H](CC(=O)O)NC(=O)c2cc3[nH]c4ccccc4n3n2)c1 [Example 39, (S)-3-[(4H-Benzo[4,5]imidazo[1,2-b]pyrazole-2-carbonyl)-amino]-3-m-tolyl-propionic acid] | 940
8 | O=C(O)C[C@H](NC(=O)c1cc2[nH]c3ccccc3n2n1)c1ccccc1F [Example 40, (S)-3-[(4H-Benzo[4,5]imidazo[1,2-b]pyrazole-2-carbonyl)-amino]-3-(2-fluoro-phenyl)-propionic acid] | 1170
9 | O=C(O)C[C@H](NC(=O)c1cc2[nH]c3ccccc3n2n1)c1ccccc1 [Example 41, (S)-3-[(4H-Benzo[4,5]imidazo[1,2-b]pyrazole-2-carbonyl)-amino]-3-phenyl-propionic acid] | 1230
10 | CC(C)(CC(=O)O)NC(=O)c1cc2[nH]c3ccccc3n2n1 [Example 43, 3-[(4H-Benzo[4,5]imidazo[1,2-b]pyrazole-2-carbonyl)-amino]-3-methyl-butyric acid] | 5180
11 | O=C(O)C[C@H](NC(=O)c1cc2[nH]c3ccccc3n2n1)c1ccccc1Cl [Example 49, (S)-3-[(4H-Benzo[4,5]imidazo[1,2-b]pyrazole-2-carbonyl)-amino]-3-(2-chloro-phenyl)-propionic acid] | 392
12 | Cc1ccccc1[C@H](CC(=O)O)NC(=O)c1cc(NCC2CC2)n(-c2ccccc2)n1 [Example 50, (S)-3-{[5-(Cyclopropylmethyl-amino)-1-phenyl-1H-pyrazole-3-carbonyl]-amino}-3-o-tolyl-propionic acid] | 49
13 | Cc1ccccc1[C@H](CC(=O)O)NC(=O)c1cc(N(CC2CC2)CC2CC2)n(-c2ccccc2)n1 [Example 51, (S)-3-{[5-(Bis-cyclopropylmethyl-amino)-1-phenyl-1H-pyrazole-3-carbonyl]-amino}-3-o-tolyl-propionic acid] | 524
14 | Cc1ccccc1[C@H](CC(=O)O)NC(=O)c1cc(NC(=O)C(C)(C)C)n(-c2ccccc2)n1 [Example 52, (S)-3-{[5-(2,2-Dimethyl-propionylamino)-1-phenyl-1H-pyrazole-3-carbonyl]-amino}-3-o-tolyl-propionic acid] | 28.6
15 | CC(C)(C)C(=O)Nc1cc(C(=O)N[C@@H](CC(=O)O)c2ccc(Cl)cc2Cl)nn1-c1ccccc1 [Example 53, (S)-3-(2,4-Dichloro-phenyl)-3-{[5-(2,2-dimethyl-propionylamino)-1-phenyl-1H-pyrazole-3-carbonyl]-amino}-propionic acid] | 27.1
16 | CC(C)(C)C(=O)Nc1cc(C(=O)N[C@@H](CC(=O)O)c2ccccc2Cl)nn1-c1ccccc1 [Example 54, (S)-3-(2-Chloro-phenyl)-3-{[5-(2,2-dimethyl-propionylamino)-1-phenyl-1H-pyrazole-3-carbonyl]-amino}-propionic acid] | 31.3
17 | Cc1ccccc1[C@H](CC(=O)O)NC(=O)c1cc(N(C)C(=O)C(C)(C)C)n(-c2ccccc2)n1 [Example 55, (S)-3-({5-[(2,2-Dimethyl-propionyl)-methyl-amino]-1-phenyl-1H-pyrazole-3-carbonyl}-amino)-3-o-tolyl-propionic acid] | 17.5
18 | Cc1ccccc1[C@H](CC(=O)O)NC(=O)c1cc(NCC(=O)C(C)(C)C)n(-c2ccccc2)n1 [Example 56, (S)-3-{[5-(3,3-Dimethyl-2-oxo-butylamino)-1-phenyl-1H-pyrazole-3-carbonyl]-amino}-3-o-tolyl-propionic acid] | 16.1
19 | Cc1ccccc1[C@H](CC(=O)O)NC(=O)c1cc(NCC(O)C(C)(C)C)n(-c2ccccc2)n1 (stereo partly drawn) [Example 57, (S)-3-{[5-(2-Hydroxy-3,3-dimethyl-butylamino)-1-phenyl-1H-pyrazole-3-carbonyl]-amino}-3-o-tolyl-propionic acid] | 12.1
20 | Cc1ccccc1[C@H](CC(=O)O)NC(=O)c1cc(NCC(C)(O)C(C)(C)C)n(-c2ccccc2)n1 (stereo partly drawn) [Example 58, (S)-3-{[5-(2-Hydroxy-2.3,3-trimethyl-butylamino)-1-phenyl-1H-pyrazole-3-carbonyl]-amino}-3-o-tolyl-propionic acid] | 38.5
21 | Cc1ccc(C(=O)Nc2cc(C(=O)N[C@@H](CC(=O)O)c3ccccc3C)nn2-c2ccccc2)o1 [Example 61, (S)-3-({5-[(5-Methyl-furan-2-carbonyl)-amino]-1-phenyl-1H-pyrazole-3-carbonyl}-amino)-3-o-tolyl-propionic acid] | 62.6
22 | Cc1ccc(C(=O)Nc2cc(C(=O)N[C@@H](CC(=O)O)c3ccc(Cl)cc3Cl)nn2-c2ccccc2)o1 [Example 62, (S)-3-(2,4-Dichloro-phenyl)-3-({5-[(5-methyl-furan-2-carbonyl)-amino]-1-phenyl-1H-pyrazole-3-carbonyl}-amino)-propionic acid] | 175
23 | Cc1ccccc1[C@H](CC(=O)O)NC(=O)c1cc(N(C)C(=O)c2ccccc2)n(-c2ccccc2)n1 [Example 63, (S)-3-{[5-(Benzoyl-methyl-amino)-1-phenyl-1H-pyrazole-3-carbonyl]-amino}-3-o-tolyl-propionic acid] | 57.2
24 | CN(C(=O)c1ccccc1)c1cc(C(=O)N[C@@H](CC(=O)O)c2ccc(Cl)cc2Cl)nn1-c1ccccc1 [Example 64, (S)-3-{[5-(Benzoyl-methyl-amino)-1-phenyl-1H-pyrazole-3-carbonyl]-amino}-3-(2,4-dichloro-phenyl)-propionic acid] | 64.7
25 | Cc1ccccc1[C@H](CC(=O)O)NC(=O)c1cc(N(C)CC(O)C(C)(C)C)n(-c2ccccc2)n1 (stereo partly drawn) [Example 65, (S)-3-({5-[(2-Hydroxy-3,3-dimethyl-butyl)-methyl-amino]-1-phenyl-1H-pyrazole-3-carbonyl}-amino)-3-o-tolyl-propionic acid] | 78.3
26 | Cc1ccccc1[C@H](CC(=O)O)NC(=O)c1cc(NC(=O)c2ccccc2)n(-c2ccccc2)n1 [Example 66, (S)-3-[(5-Benzoylamino-1-phenyl-1H-pyrazole-3-carbonyl)-amino]-3-o-tolyl-propionic acid] | 30.1
27 | O=C(O)C[C@H](NC(=O)c1cc(NC(=O)c2ccccc2)n(-c2ccccc2)n1)c1ccc(Cl)cc1Cl [Example 67, (S)-3-[(5-Benzoylamino-1-phenyl-1H-pyrazole-3-carbonyl)-amino]-3-(2,4-dichloro-phenyl)-propionic acid] | 106
